Experiments:
[1] = molecular target: Prostaglandin G/H synthase 1 (Homo sapiens) (UniProt P23219); assay: Selectivity interaction (Safety Panel 44tm (Eurofins)) EUB0000162b PTGS1; settings: at 10 µM
[2] = molecular target: Bromodomain-containing protein 8 (Homo sapiens) (UniProt Q9H0E9); assay: Selectivity interaction (Bromodomain panel (DSF asssay)) EUB0000270b BRD8
[3] = molecular target: Ribosomal protein S6 kinase alpha-4 (Homo sapiens) (UniProt O75676); assay: Selectivity interaction (Kinase panel (Invitrogen)) EUB0000639a RPS6KA4; settings: at 200 nM
Chain of Ribosomal protein S6 kinase alpha-4 (Homo sapiens) (O75676 whole entry, looked up): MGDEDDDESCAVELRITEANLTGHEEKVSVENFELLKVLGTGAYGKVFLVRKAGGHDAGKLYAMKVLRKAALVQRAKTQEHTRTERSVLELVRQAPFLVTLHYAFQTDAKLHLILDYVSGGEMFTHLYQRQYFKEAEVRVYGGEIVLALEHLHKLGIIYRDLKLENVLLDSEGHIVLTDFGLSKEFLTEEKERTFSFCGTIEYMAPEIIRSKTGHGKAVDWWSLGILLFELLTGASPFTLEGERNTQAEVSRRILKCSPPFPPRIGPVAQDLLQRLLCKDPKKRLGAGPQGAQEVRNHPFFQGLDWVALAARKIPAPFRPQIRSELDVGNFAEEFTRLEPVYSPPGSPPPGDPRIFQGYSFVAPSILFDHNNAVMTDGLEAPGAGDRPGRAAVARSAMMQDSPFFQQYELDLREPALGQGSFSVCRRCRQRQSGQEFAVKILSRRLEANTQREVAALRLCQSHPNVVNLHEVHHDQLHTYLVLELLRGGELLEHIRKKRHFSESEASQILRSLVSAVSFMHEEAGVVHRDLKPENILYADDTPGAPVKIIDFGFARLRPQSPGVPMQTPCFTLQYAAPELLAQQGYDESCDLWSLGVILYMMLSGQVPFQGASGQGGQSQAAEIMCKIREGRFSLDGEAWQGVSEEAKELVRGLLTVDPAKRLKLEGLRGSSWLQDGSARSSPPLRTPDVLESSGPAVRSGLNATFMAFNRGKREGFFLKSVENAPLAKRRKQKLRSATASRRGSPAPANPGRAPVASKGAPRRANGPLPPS

[4] = molecular target: Tyrosine-protein kinase SYK (Homo sapiens, UniProt P43405); assay: Selectivity interaction (ActivX KiNativ screen (kinase selectivity in THP-1 cell lysates)) EUB0000639a SYK; type: subcellular; settings: lysate, at 0.2 µM
[5] = molecular target: Casein kinase I isoform gamma-1 (Homo sapiens) (UniProt Q9HCP0); assay: Selectivity interaction (KinomeScan (DiscoverX)) EUB0000595a CSNK1G1; settings: at 10 µM
Chain of Casein kinase I isoform gamma-1 (Homo sapiens) (Q9HCP0 whole entry, looked up, canonical isoform): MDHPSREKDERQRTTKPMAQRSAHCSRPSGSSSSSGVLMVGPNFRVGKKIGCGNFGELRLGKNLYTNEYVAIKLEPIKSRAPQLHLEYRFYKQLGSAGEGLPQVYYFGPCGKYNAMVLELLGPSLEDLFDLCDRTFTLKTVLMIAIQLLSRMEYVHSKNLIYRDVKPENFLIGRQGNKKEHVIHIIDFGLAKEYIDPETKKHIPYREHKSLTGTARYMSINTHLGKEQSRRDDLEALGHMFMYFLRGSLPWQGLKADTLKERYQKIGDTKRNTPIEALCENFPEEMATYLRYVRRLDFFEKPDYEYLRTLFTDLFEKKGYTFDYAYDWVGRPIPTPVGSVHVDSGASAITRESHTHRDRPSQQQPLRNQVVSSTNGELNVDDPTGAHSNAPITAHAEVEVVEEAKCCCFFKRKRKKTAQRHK

[6] = molecular target: Casein kinase II subunit alpha (Homo sapiens, UniProt P68400); assay: Selectivity interaction (Ambit KINOMEscan and KiNATiv profiling in Jurkat cells) EUB0000090b CSNK2A1; type: cell-based; settings: at 1 µM
Chain of Casein kinase II subunit alpha (P68400 whole entry, looked up): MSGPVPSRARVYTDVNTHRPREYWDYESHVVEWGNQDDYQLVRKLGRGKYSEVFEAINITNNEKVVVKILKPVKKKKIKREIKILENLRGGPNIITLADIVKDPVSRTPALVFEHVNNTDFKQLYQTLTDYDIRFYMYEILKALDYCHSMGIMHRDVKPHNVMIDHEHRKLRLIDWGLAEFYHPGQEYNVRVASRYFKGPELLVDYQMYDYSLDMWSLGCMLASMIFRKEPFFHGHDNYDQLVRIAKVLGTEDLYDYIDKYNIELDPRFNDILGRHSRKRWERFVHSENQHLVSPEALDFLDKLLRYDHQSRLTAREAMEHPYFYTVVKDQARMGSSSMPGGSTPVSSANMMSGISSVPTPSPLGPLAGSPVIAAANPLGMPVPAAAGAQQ

[7] = molecular target: T1, Serine/threonine-protein kinase Nek11 (Homo sapiens) (UniProt Q8NG66); assay: Selectivity interaction (Ambit KINOMEscan and KiNATiv profiling in Jurkat cells) EUB0000090b NEK11; type: cell-based; settings: at 1 µM
T1 sequence (whole entry): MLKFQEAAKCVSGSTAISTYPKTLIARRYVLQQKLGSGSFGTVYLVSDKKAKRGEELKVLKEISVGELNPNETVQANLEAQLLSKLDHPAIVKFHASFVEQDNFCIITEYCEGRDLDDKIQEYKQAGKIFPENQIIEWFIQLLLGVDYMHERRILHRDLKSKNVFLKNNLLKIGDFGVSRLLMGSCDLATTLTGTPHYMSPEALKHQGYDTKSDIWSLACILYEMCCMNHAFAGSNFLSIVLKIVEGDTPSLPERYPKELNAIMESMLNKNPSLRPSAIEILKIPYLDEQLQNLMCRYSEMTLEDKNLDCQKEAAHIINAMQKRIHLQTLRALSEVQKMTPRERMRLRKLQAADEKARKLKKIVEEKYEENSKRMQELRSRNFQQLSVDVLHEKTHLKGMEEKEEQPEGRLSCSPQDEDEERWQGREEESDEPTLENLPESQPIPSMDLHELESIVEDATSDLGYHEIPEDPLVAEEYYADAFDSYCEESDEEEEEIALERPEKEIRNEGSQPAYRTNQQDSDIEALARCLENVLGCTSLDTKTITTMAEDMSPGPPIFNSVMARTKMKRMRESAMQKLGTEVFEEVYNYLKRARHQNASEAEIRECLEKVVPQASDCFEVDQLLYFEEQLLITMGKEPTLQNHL

[8] = molecular target: Serine/threonine-protein kinase PAK 4 (Homo sapiens, UniProt O96013); assay: Selectivity interaction (Ambit KINOMEscan and KiNATiv profiling in Jurkat cells) EUB0000090b PAK4; type: cell-based; settings: at 1 µM
Chain of Serine/threonine-protein kinase PAK 4 (O96013 whole entry, looked up): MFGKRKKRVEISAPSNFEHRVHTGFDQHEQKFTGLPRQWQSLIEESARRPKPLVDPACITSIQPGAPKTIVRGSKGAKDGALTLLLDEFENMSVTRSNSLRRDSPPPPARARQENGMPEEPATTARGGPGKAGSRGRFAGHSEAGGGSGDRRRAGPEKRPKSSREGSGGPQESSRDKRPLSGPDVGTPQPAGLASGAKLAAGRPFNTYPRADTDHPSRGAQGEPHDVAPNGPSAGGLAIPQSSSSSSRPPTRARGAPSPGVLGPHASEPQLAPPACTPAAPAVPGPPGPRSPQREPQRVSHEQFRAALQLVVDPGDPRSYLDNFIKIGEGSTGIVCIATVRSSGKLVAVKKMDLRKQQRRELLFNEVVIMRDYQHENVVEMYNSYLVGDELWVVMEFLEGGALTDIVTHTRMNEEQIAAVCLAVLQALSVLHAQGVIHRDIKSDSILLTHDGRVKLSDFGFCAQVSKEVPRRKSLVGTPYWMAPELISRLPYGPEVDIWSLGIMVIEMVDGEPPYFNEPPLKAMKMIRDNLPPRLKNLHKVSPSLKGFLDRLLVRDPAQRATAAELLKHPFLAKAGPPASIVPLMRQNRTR

[9] = molecular target: Receptor tyrosine-protein kinase erbB-3 (Homo sapiens) (UniProt P21860); assay: Selectivity interaction (KinomeScan (DiscoverX)) EUB0001619a ERBB3; settings: at 1 µM
[10] = molecular target: T2, Scaffold protein ILK (Homo sapiens) (UniProt Q13418); assay: Selectivity interaction (ActivX KiNativ screen (ex vivo kinase selectivity in human PBMCs)) EUB0001619a ILK; type: cell-based; settings: PBMC, at 1 µM
T2 sequence (whole entry): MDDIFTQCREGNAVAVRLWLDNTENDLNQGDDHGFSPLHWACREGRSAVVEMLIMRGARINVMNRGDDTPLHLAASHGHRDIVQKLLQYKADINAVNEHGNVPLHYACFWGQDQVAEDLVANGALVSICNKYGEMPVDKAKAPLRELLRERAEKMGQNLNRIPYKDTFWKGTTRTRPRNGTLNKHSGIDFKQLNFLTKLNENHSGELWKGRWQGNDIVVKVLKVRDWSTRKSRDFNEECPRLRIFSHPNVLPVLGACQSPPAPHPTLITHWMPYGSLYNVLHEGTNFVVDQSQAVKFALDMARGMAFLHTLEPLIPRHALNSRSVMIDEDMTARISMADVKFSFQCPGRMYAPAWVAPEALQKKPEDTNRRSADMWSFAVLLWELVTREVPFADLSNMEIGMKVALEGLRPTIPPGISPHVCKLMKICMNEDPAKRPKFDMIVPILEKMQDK

[11] = molecular target: T3, Mitogen-activated protein kinase kinase kinase 3 (Homo sapiens) (UniProt Q99759); assay: Selectivity interaction (KinomeScan (DiscoverX)) EUB0000695a MAP3K3; settings: at 100 nM
T3 sequence (whole entry): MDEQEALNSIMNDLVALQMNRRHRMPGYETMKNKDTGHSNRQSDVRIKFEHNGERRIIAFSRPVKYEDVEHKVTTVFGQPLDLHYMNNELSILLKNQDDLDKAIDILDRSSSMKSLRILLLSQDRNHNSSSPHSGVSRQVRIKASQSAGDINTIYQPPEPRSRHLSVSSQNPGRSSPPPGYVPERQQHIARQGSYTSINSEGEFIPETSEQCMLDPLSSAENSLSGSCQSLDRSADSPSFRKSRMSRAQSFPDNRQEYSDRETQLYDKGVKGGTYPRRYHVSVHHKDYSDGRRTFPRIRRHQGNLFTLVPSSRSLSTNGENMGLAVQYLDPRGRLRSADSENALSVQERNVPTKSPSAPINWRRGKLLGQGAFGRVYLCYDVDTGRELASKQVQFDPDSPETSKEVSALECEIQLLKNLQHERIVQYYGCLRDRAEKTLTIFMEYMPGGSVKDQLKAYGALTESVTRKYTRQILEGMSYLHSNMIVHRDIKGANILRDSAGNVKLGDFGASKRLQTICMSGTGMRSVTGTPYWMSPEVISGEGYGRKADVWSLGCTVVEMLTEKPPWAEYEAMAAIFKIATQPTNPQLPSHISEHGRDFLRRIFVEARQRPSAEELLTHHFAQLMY

[12] = molecular target: Tyrosine-protein kinase Srms (Homo sapiens) (UniProt Q9H3Y6); assay: Selectivity interaction (KinomeScan (DiscoverX)) EUB0000607a SRMS; settings: at 10 µM
[13] = molecular target: Phosphatidylinositol 4,5-bisphosphate 3-kinase catalytic subunit alpha isoform (Homo sapiens) (UniProt P42336); assay: Selectivity interaction (ProQinase) EUB0000171b PIK3CA
Chain of Phosphatidylinositol 4,5-bisphosphate 3-kinase catalytic subunit alpha isoform (Homo sapiens) (P42336 whole entry, canonical isoform): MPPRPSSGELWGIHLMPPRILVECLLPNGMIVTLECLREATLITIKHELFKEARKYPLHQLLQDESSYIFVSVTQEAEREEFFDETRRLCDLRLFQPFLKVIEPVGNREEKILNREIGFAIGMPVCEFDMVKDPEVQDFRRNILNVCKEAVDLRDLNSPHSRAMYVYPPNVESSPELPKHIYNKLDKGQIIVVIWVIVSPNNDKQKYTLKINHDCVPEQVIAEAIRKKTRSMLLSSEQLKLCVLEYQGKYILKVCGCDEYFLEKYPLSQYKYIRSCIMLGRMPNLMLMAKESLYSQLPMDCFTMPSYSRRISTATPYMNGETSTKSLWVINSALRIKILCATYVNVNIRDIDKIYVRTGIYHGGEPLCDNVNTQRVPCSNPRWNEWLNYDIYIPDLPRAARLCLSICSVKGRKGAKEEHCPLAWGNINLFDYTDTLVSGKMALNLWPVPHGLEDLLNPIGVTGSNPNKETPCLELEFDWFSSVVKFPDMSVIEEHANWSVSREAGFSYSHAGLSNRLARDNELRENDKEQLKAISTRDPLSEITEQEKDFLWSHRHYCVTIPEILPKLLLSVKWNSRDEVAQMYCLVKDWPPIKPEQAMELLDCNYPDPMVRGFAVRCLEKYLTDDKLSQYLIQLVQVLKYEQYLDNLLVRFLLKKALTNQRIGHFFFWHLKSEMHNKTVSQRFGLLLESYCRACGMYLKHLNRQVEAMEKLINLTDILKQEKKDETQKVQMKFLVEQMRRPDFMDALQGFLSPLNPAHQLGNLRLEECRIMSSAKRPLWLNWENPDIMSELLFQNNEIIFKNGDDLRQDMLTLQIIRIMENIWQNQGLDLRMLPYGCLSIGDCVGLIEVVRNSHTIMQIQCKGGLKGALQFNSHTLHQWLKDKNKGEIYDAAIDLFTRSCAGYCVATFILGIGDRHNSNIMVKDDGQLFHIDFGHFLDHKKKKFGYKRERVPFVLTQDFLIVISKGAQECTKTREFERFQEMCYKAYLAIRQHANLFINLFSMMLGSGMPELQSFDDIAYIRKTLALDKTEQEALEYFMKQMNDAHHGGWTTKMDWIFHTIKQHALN

Chain of Bromodomain-containing protein 8 (Homo sapiens) (Q9H0E9 whole entry): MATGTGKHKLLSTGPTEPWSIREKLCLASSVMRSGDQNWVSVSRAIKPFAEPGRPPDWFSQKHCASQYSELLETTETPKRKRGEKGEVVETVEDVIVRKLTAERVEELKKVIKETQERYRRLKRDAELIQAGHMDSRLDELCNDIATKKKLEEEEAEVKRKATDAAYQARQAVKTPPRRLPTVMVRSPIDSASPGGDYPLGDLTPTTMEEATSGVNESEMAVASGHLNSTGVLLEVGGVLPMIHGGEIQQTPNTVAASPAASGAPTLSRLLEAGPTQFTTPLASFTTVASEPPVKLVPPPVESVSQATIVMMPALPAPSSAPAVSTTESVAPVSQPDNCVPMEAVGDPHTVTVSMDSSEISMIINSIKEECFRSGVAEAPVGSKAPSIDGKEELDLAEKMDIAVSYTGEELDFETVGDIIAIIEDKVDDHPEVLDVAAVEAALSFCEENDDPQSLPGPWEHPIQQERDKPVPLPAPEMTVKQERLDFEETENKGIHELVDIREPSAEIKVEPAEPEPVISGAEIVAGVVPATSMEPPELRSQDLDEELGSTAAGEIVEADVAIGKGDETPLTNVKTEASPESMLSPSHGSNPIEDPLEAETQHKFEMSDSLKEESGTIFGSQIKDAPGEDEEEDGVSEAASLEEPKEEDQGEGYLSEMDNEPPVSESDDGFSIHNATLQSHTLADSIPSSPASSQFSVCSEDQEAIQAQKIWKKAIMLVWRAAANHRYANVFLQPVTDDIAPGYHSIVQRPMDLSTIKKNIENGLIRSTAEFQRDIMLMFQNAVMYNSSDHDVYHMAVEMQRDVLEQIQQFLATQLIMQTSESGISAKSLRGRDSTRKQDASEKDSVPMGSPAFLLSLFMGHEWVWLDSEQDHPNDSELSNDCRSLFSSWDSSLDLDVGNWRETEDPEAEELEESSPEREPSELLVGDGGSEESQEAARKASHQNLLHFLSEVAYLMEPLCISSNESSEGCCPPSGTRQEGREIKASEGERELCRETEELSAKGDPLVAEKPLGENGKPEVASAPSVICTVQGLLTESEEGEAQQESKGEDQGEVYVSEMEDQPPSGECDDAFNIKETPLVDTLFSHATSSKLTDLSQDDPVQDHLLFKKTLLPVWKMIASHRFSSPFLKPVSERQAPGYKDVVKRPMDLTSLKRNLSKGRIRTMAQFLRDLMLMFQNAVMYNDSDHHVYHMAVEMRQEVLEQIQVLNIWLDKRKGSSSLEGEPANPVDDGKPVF
Chain of Prostaglandin G/H synthase 1 (Homo sapiens) (P23219 whole entry): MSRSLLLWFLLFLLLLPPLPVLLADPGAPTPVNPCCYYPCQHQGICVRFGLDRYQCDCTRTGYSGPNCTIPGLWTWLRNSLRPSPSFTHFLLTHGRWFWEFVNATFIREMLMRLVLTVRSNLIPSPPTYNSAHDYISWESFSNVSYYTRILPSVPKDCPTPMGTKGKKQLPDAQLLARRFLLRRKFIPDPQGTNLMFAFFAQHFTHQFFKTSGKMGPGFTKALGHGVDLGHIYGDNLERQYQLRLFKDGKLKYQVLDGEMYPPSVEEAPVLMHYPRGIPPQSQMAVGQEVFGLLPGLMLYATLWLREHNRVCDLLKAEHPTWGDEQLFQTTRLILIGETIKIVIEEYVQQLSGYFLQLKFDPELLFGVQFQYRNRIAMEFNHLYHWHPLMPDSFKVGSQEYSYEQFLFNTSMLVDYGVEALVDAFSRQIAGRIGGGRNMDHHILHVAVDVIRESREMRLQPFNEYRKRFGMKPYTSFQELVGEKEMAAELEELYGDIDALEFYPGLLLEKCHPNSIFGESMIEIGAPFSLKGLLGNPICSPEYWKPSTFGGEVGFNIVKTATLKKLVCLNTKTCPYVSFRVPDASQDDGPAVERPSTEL

Molecule CN(C)C(=O)Cn1cc(-c2ccc(-c3cncc4ccccc34)cc2)cn1 has a % of control [1] of 59%.

Cc1cc(CN)cc(C)c1-c1ncn(C)c1-c1cncn1C showed a dTM [2] of -1.17 K.

Molecule CC[C@@H]1[C@H](F)C(=O)N[C@@H]1COc1nccc2cc(C(N)=O)c(OC)cc12 [ZIMLOVISERTIB] has a % of inhibition [3] of 4.43% and a % of inhibition [4] of 9.3%.

Molecule COCC(=O)NC/C=C/c1ccc2ncnc(Nc3ccc(Oc4ccc(C)nc4)c(C)c3)c2c1 [CP-724714] has a % of control [5] of 100%.

CN(C)C/C=C/C(=O)Nc1ccc(C(=O)N2CCCC(Nc3ncc(Cl)c(-c4c[nH]c5ccccc45)n3)C2)cc1 (centres undefined) gave a % of control [6] of 78%, a % of control [7] of 90% and a % of control [8] of 78%.

N#Cc1cccc(-c2c[nH]c3ncnc(N4CCOCC4)c23)c1 gave a % of control [9] of 51% and a % of inhibition [10] of -32%.

For Cc1cc(F)c(C(=O)Nc2cccc(-c3nncn3C(C)C)n2)cc1-n1cnc(C2CC2)c1, the % of control [11] was 93%.

Molecule CNC(=O)Nc1ccc(-c2nc(N3CC4CCC(C3)O4)c3cnn(C4CCC5(CC4)OCCO5)c3n2)cc1 has a % of control [12] of 97%.

C=CC(=O)Nc1cccc(C(=O)Nc2ccc(Nc3cc(-c4[nH]c(SC)nc4C)ccn3)cc2)c1 gave a % of control ([13]; at 1 µM) of 118% and a % of control ([13]; at 5 µM) of 106%.
